Test results published in patent publication US20160122387A1, “Angiotensin Peptide and Pharmaceutical Compositions for Disease Treatment” (UNIVERSIDADE FEDERAL DE MINAS GERAIS - UFMG, priority 2012, published 2016).

What was measured:
[1] = tested on: thoracic aortic rings of normotensive Wistar rats; experiment: Vasorelaxation in thoracic aortic rings of normotensive Wistar rats pre-contracted with phenylephrine; set-up: species or system rat; conditions: aortic rings of Wistar and SHR rats (FIGS. 2A and 2B)
Experimental: (§1) Three- to four-mm rings of the descending thoracic aorta, free from adipose and connective tissue, were maintained in a gasified solution (95% 02 and 5% CO2) of Krebs-Henseleit, at 37° C. under 1.0 g tension, 1 hour for stabilization. The presence of functional endothelium was assessed by the ability of acetylcholine [ACh] (10 μmol/L) to induce more than 70% relaxation of vessels pre-contracted with phenylephrine (Phe) ([…]). The mechanical activity, recorded isometrically by a force transducer, was fed into a recorder-amplifier and a computer equipped with an analog-digital converter board, using CVMS data acquisition/recording software.
(§2) The vessels from normotensive Wistar rats and spontaneously hypertensive rats (SHR) were pre-contracted in the same voltage level (approximately 1.0 g tension) at the submaximal concentration of phenylephrine ([…]). Arg0-Ang-(1-7) and Ang-(1-7) were added in increasing cumulative concentrations as the response to phenylephrine was stabilized. Results are presented as mean±SEM. One-way analysis of variance (ANOVA) with Newman-Keuls post test of multiple comparisons was used to compare the concentration response curves obtained in the aortic rings. The vasodilatation effect of arg0-Ang-(1-7) and Ang-(1-7) was expressed as the percentage of decrease in peak concentration induced by phenylephrine. […]

conscious SHR = experiment: Acute IV bolus administration, MAP and HR in conscious SHR; format: in vivo, rat
Experimental: Wistar and SHR rats were anesthetized with 2.5% tribromoethanol, intraperitoneally (1 mL/100 g). For femoral artery cannulation, cannulas made by connecting 15 cm polyethylene PESO to 4 cm of PE10 polyethylene were used, filled with saline solution (NaCl 0.9%) and heparin (100 IU/0.1 mL). After the animal was placed supine on the operating table, a trichotomy of the right inguinal region of the animal was performed. A small skin incision was made; the femoral neurovascular bundle was located and the femoral artery isolated. The cannula was introduced into the abdominal aorta through the femoral artery and was used for obtaining the cardiovascular parameters. A second cannula made by connecting 15 cm polyethylene PESO to 2 cm of PE10 polyethylene, filled with saline (0.9% NaCl), was inserted into the femoral vein for administration of peptides. After cannulation, the catheters were secured and exteriorized subcutaneously into the back of the animal, in the cervical region. The incisions were sutured and the animals placed in individual cages, with free access to water and feed. The values of mean arterial pressure (MAP) and heart rate (HR) were calculated from PA pulses and recorded by the data acquisition system (BIOPAC System, Model MP150). The pulsatile arterial pressure (PAP) was recorded by a signal sent to a transducer connected to the cannula inserted into the abdominal aorta via the femoral artery. The pressure oscillations were captured, amplified and converted by an analog/digital conversion board feeding signals to the data acquisition board. Through the card reader software, AcqKnowledge v.3.5.7 (Biopac System), PAP was continuously recorded with a sampling frequency of 2000-4000 Hz. Twenty-four hours after implantation of the cannulas was conducted, the first protocol, which consisted of acute intravenous administration of peptides was performed. For this, during the experiment, the arterial catheter was connected to the pressure transducer for the beginning of the record. After 90 minutes of cardiovascular parameters stabilization (baseline), the administration of the peptides […]-Ang-(1-7), Ang (1-7) or saline in a final volume of 300 uL was given in bolus. […] The Ang-(1-7) also was used to compare the effect induced by each peptide. Doses of 0.1 nmol/kg; 0.5 nmol/kg; 2.5 nmol/kg and 12.5 nmol/kg were administered to SHR (n=5-7 for each dose) while awake. […] After injection of the peptide or saline, cardiovascular parameters were continuously monitored for a period of 5 hours. The values of the MAP and HR were obtained every 10 minutes throughout the experimental period. Results are presented as mean±standard error of the mean. Two-way analysis of variance (ANOVA) with Bonferroni's multiple comparison post-test were used to compare the time-response curve obtained during the bolus administration in […]-Ang-(1-7) and Ang-(1-7). All statistical analyses were considered significant when p<0.05.

[2] = tested on: thoracic aortic rings of spontaneously hypertensive rats (SHR); experiment: Vasorelaxation in thoracic aortic rings of spontaneously hypertensive rats (SHR) pre-contracted with phenylephrine; set-up: species or system rat; conditions: percentage of decrease of phenylephrine contraction
Experimental: as §1, §2

awake Wistar rats = experiment: Acute IV bolus administration, MAP and HR in awake Wistar rats; format: in vivo, rat; conditions: IV bolus 0.5 nmol/kg
Experimental: Wistar and SHR rats were anesthetized with 2.5% tribromoethanol, intraperitoneally (1 mL/100 g). For femoral artery cannulation, cannulas made by connecting 15 cm polyethylene PESO to 4 cm of PE10 polyethylene were used, filled with saline solution (NaCl 0.9%) and heparin (100 IU/0.1 mL). After the animal was placed supine on the operating table, a trichotomy of the right inguinal region of the animal was performed. A small skin incision was made; the femoral neurovascular bundle was located and the femoral artery isolated. The cannula was introduced into the abdominal aorta through the femoral artery and was used for obtaining the cardiovascular parameters. […] The values of mean arterial pressure (MAP) and heart rate (HR) were calculated from PA pulses and recorded by the data acquisition system (BIOPAC System, Model MP150). The pulsatile arterial pressure (PAP) was recorded by a signal sent to a transducer connected to the cannula inserted into the abdominal aorta via the femoral artery. […] Through the card reader software, AcqKnowledge v.3.5.7 (Biopac System), PAP was continuously recorded with a sampling frequency of 2000-4000 Hz. […] After injection of the peptide or saline, cardiovascular parameters were continuously monitored for a period of 5 hours. […]

## Asp-Arg-Val-Tyr-Ile-His-Pro [Ang-(1-7)]
[1]
  endothelium dependence of the vasorelaxant effect: endothelium-dependent
Conscious SHR; SHR, IV bolus 0.1 nmol/kg
  effect on MAP (PAM): did not significantly alter PAM
Conscious SHR; SHR, IV bolus 0.5 nmol/kg, vs saline group
  effect on MAP: no significant difference
Conscious SHR; SHR, IV bolus 12.5 nmol/kg, last 30 minutes of the experiment
  change in heart rate (FC): significantly reduced the FC
Conscious SHR; SHR, IV bolus 2.5 and 12.5 nmol/kg
  time after administration at which anti-hypertensive effect was observed: 110 min
Conscious SHR; SHR, IV bolus 2.5 and 12.5 nmol/kg, vs saline group
  effect on MAP: significant anti-hypertensive effect
Conscious SHR; SHR, IV bolus 2.5 vs 12.5 nmol/kg
  dose comparison of anti-hypertensive effect: more potent at the dose of 2.5 nmol/kg
Conscious SHR; SHR, IV bolus, all doses except 12.5 nmol/kg Ang-(1-7)
  change in heart rate (CF): no change was observed
Conscious SHR; awake SHR, acute intravenous, different doses, vs saline group
  change in MAP, time- and dose-dependent: significant reduction in MAP
[2]
  Emax of vasorelaxation: 30±3%
Awake Wistar rats
  change in HR: failed to induce significant changes
  change in MAP: failed to induce significant changes
